“And” between values parts separate entries of the source, which are not always exact repeats. Identical values can stand only once. ± gives the uncertainty stated by the source.
Assay: xn = mol fraction of the nth substance listed

CCO + O
Conditions | viscosity
293.15 K, 100 kPa, x1 = 0.3 | 2.81 ± 0.0084 mPa·s
293.15 K, 100 kPa, x1 = 0.4 | 2.616 ± 0.0078 mPa·s
293.15 K, 101 kPa, x2 = 0.25 | 2.385 ± 0.029 mPa·s
293.15 K, 101 kPa, x2 = 0.75 | 2.114 ± 0.026 mPa·s
293.15 K, 101.33 kPa, x1 = 0.04164 | 1.564 ± 0.016 mPa·s
293.15 K, 101.33 kPa, x1 = 0.2068 | 2.942 ± 0.029 mPa·s
293.15 K, 101.33 kPa, x1 = 0.235 | 2.947 ± 0.029 mPa·s
293.15 K, 101.33 kPa, x1 = 0.2499 | 2.922 ± 0.029 mPa·s
293.15 K, 101.33 kPa, x1 = 0.3697 | 2.694 ± 0.027 mPa·s
293.15 K, 101.33 kPa, x1 = 0.4771 | 2.381 ± 0.024 mPa·s
293.15 K, 101.33 kPa, x1 = 0.61 | 2.036 ± 0.02 mPa·s
293.15 K, 101.33 kPa, x1 = 0.7787 | 1.643 ± 0.016 mPa·s
293.15 K, 101.33 kPa, x2 = 0.0102 | 1.261 ± 0.013 mPa·s
298 K, 101 kPa, x1 = 0.09 | 1.81 ± 0.02 mPa·s
298 K, 101 kPa, x1 = 0.1 | 2.409 ± 0.027 mPa·s
298 K, 101 kPa, x1 = 0.4 | 2.234 ± 0.025 mPa·s
298 K, 101 kPa, x1 = 0.5 | 2.013 ± 0.023 mPa·s
298.15 K, 100 kPa, x1 = 0.2 | 2.335 ± 0.095 mPa·s
298.15 K, 100 kPa, x1 = 0.4 | 2.148 ± 0.088 mPa·s
298.15 K, 100 kPa, x1 = 0.78 | 1.423 ± 0.058 mPa·s
298.15 K, 101 kPa, x1 = 0.0112 | 0.991 ± 0.013 mPa·s
298.15 K, 101 kPa, x1 = 0.0129 | 1.007 ± 0.013 mPa·s
298.15 K, 101 kPa, x1 = 0.0197 | 1.072 ± 0.013 mPa·s
298.15 K, 101 kPa, x1 = 0.025 | 1.127 ± 0.014 mPa·s
298.15 K, 101 kPa, x1 = 0.0289 | 1.166 ± 0.014 mPa·s
298.15 K, 101 kPa, x1 = 0.0348 | 1.225 ± 0.014 mPa·s
298.15 K, 101 kPa, x1 = 0.0439 | 1.322 ± 0.015 mPa·s
298.15 K, 101 kPa, x1 = 0.0515 | 1.405 ± 0.018 mPa·s
298.15 K, 101 kPa, x1 = 0.0677 | 1.576 ± 0.017 mPa·s
298.15 K, 101 kPa, x1 = 0.1003 | 1.889 ± 0.027 mPa·s
298.15 K, 101 kPa, x1 = 0.1025 | 1.91 ± 0.019 mPa·s
298.15 K, 101 kPa, x1 = 0.1139 | 2 ± 0.019 mPa·s
298.15 K, 101 kPa, x1 = 0.1302 | 2.109 ± 0.019 mPa·s
298.15 K, 101 kPa, x1 = 0.14 | 2.1 ± 0.02 mPa·s
298.15 K, 101 kPa, x1 = 0.1597 | 2.247 ± 0.033 mPa·s
298.15 K, 101 kPa, x1 = 0.1837 | 2.322 ± 0.021 mPa·s
298.15 K, 101 kPa, x1 = 0.28 | 2.25 ± 0.02 mPa·s
298.15 K, 101 kPa, x1 = 0.3515 | 2.248 ± 0.03 mPa·s
298.15 K, 101 kPa, x1 = 0.37 | 2.14 ± 0.03 mPa·s
298.15 K, 101 kPa, x1 = 0.4801 | 1.995 ± 0.025 mPa·s
298.15 K, 101 kPa, x1 = 0.613 | 1.725 ± 0.023 mPa·s
298.15 K, 101 kPa, x1 = 0.6923 | 1.58 ± 0.02 mPa·s
298.15 K, 101 kPa, x1 = 0.8006 | 1.401 ± 0.019 mPa·s
298.15 K, 101 kPa, x1 = 0.8018 | 1.399 ± 0.017 mPa·s
298.15 K, 101 kPa, x1 = 0.905 | 1.239 ± 0.018 mPa·s
298.15 K, 101 kPa, x1 = 0.9518 | 1.167 ± 0.017 mPa·s
298.15 K, 101 kPa, x2 = 0.25 | 2.046 ± 0.025 mPa·s
298.15 K, 101 kPa, x2 = 0.5 | 2.322 ± 0.029 mPa·s
298.15 K, 101 kPa, x2 = 0.75 | 1.778 ± 0.022 mPa·s
298.15 K, 101 kPa, x2 = 0.9584 | 1.108 ± 0.0087 mPa·s
298.15 K, 101.33 kPa, x1 = 0.0144 | 0.96 ± 0.008 mPa·s
298.15 K, 101.33 kPa, x1 = 0.0205 | 1.013 ± 0.008 mPa·s
298.15 K, 101.33 kPa, x1 = 0.1135 | 1.851 ± 0.014 mPa·s
298.15 K, 101.33 kPa, x1 = 0.1414 | 2.129 ± 0.016 mPa·s
298.15 K, 101.33 kPa, x1 = 0.1893 | 2.29 ± 0.018 mPa·s
298.15 K, 101.33 kPa, x1 = 0.2151 | 2.327 ± 0.018 mPa·s
298.15 K, 101.33 kPa, x1 = 0.3285 | 2.273 ± 0.017 mPa·s
298.15 K, 101.33 kPa, x1 = 0.3308 | 2.273 ± 0.017 mPa·s
298.15 K, 101.33 kPa, x1 = 0.3461 | 2.247 ± 0.017 mPa·s
298.15 K, 101.33 kPa, x1 = 0.3745 | 2.226 ± 0.017 mPa·s
298.15 K, 101.33 kPa, x1 = 0.3801 | 2.212 ± 0.017 mPa·s
298.15 K, 101.33 kPa, x1 = 0.4246 | 2.104 ± 0.016 mPa·s
298.15 K, 101.33 kPa, x1 = 0.4299 | 2.112 ± 0.016 mPa·s
298.15 K, 101.33 kPa, x1 = 0.4836 | 1.995 ± 0.015 mPa·s
298.2 K, 100 kPa, x2 = 0.387 | 1.854 ± 0.021 mPa·s
298.2 K, 100 kPa, x2 = 0.399 | 1.676 ± 0.047 mPa·s
298.2 K, 100 kPa, x2 = 0.655 | 2.18 ± 0.052 mPa·s
298.2 K, 100 kPa, x2 = 0.674 | 2.18 ± 0.032 mPa·s
300.65 K, 101 kPa, x1 = 0.86 | 1.1 ± 0.02 mPa·s
303.15 K, 101 kPa, x2 = 0.25 | 1.767 ± 0.022 mPa·s
303.15 K, 101 kPa, x2 = 0.5 | 1.961 ± 0.024 mPa·s
303.15 K, 101.33 kPa, x1 = 0.04164 | 1.179 ± 0.012 mPa·s
303.15 K, 101.33 kPa, x1 = 0.08905 | 1.574 ± 0.016 mPa·s
303.15 K, 101.33 kPa, x1 = 0.1435 | 1.9 ± 0.019 mPa·s
303.15 K, 101.33 kPa, x1 = 0.2499 | 2.061 ± 0.021 mPa·s
303.15 K, 101.33 kPa, x1 = 0.2652 | 2.056 ± 0.021 mPa·s
303.15 K, 101.33 kPa, x1 = 0.2811 | 2.068 ± 0.021 mPa·s
303.15 K, 101.33 kPa, x1 = 0.4771 | 1.79 ± 0.018 mPa·s
303.15 K, 101.33 kPa, x1 = 0.61 | 1.567 ± 0.016 mPa·s
303.15 K, 101.33 kPa, x1 = 0.7787 | 1.311 ± 0.013 mPa·s
303.15 K, 101.33 kPa, x2 = 0.0102 | 1.035 ± 0.01 mPa·s
308 K, 101 kPa, x1 = 0.09 | 1.343 ± 0.035 mPa·s
308.15 K, 101 kPa, x2 = 0.25 | 1.54 ± 0.019 mPa·s
308.15 K, 101 kPa, x2 = 0.5 | 1.676 ± 0.021 mPa·s
308.15 K, 101 kPa, x2 = 0.9584 | 0.939 ± 0.0076 mPa·s
313.15 K, 101 kPa, x2 = 0.25 | 1.349 ± 0.017 mPa·s
313.15 K, 101 kPa, x2 = 0.5 | 1.448 ± 0.018 mPa·s
313.15 K, 101.33 kPa, x1 = 0.04164 | 0.909 ± 0.0091 mPa·s
313.15 K, 101.33 kPa, x1 = 0.1435 | 1.383 ± 0.014 mPa·s
313.15 K, 101.33 kPa, x1 = 0.2068 | 1.494 ± 0.015 mPa·s
313.15 K, 101.33 kPa, x1 = 0.2499 | 1.509 ± 0.015 mPa·s
313.15 K, 101.33 kPa, x1 = 0.2652 | 1.514 ± 0.015 mPa·s
313.15 K, 101.33 kPa, x1 = 0.2811 | 1.529 ± 0.015 mPa·s
313.15 K, 101.33 kPa, x1 = 0.61 | 1.223 ± 0.012 mPa·s
313.15 K, 101.33 kPa, x1 = 0.7787 | 1.05 ± 0.01 mPa·s
317.15 K, 101 kPa, x1 = 0.86 | 0.779 ± 0.017 mPa·s
318.15 K, 101 kPa, x2 = 0.25 | 1.185 ± 0.015 mPa·s
318.15 K, 101 kPa, x2 = 0.5 | 1.255 ± 0.015 mPa·s
318.15 K, 101 kPa, x2 = 0.9413 | 0.8181 ± 0.0067 mPa·s
323.15 K, 100 kPa, x1 = 0.2 | 1.113 ± 0.0033 mPa·s and 1.08 ± 0.045 mPa·s
323.15 K, 100 kPa, x1 = 0.3 | 1.108 ± 0.046 mPa·s
323.15 K, 100 kPa, x1 = 0.4 | 1.113 ± 0.0033 mPa·s and 1.072 ± 0.044 mPa·s
323.15 K, 100 kPa, x1 = 0.6 | 0.9548 ± 0.0029 mPa·s and 0.9408 ± 0.039 mPa·s
323.15 K, 100 kPa, x1 = 0.8 | 0.8101 ± 0.033 mPa·s
323.15 K, 101 kPa, x2 = 0.25 | 1.055 ± 0.013 mPa·s
323.15 K, 101 kPa, x2 = 0.5 | 1.102 ± 0.014 mPa·s
323.15 K, 101 kPa, x2 = 0.75 | 0.89 ± 0.011 mPa·s
323.15 K, 101.33 kPa, x1 = 0.04164 | 0.747 ± 0.0075 mPa·s
323.15 K, 101.33 kPa, x1 = 0.08905 | 0.924 ± 0.0092 mPa·s
323.15 K, 101.33 kPa, x1 = 0.1435 | 1.061 ± 0.011 mPa·s
323.15 K, 101.33 kPa, x1 = 0.2068 | 1.152 ± 0.012 mPa·s
323.15 K, 101.33 kPa, x1 = 0.235 | 1.157 ± 0.012 mPa·s
323.15 K, 101.33 kPa, x1 = 0.2499 | 1.162 ± 0.012 mPa·s
323.15 K, 101.33 kPa, x1 = 0.2652 | 1.177 ± 0.012 mPa·s
323.15 K, 101.33 kPa, x1 = 0.2811 | 1.18 ± 0.012 mPa·s
323.15 K, 101.33 kPa, x1 = 0.3697 | 1.162 ± 0.012 mPa·s
323.15 K, 101.33 kPa, x1 = 0.4771 | 1.089 ± 0.011 mPa·s
323.15 K, 101.33 kPa, x1 = 0.61 | 0.981 ± 0.0098 mPa·s
323.15 K, 101.33 kPa, x1 = 0.7787 | 0.866 ± 0.0087 mPa·s
323.15 K, 101.33 kPa, x2 = 0.0102 | 0.729 ± 0.0073 mPa·s

From the CheMixHub viscosity set
